Like-named read-outs stand apart in the source and are kept apart here.

In general, melting point refers to the temperature of the solid-liquid transition.

The subject of data set [1] is Mycosphaerella graminicola; Anamorph: Zymoseptoria tritici. Nature of the data set: Fungicidal activity: Leaf Blotch of Wheat (SEPTTR), wheat seedlings. The following applies: Low Volume (121.5 g/H), wheat. Type of data set: in vivo. As to the method: Example A: Evaluation of Fungicidal Activity: Leaf Blotch of Wheat (Mycosphaerella graminicola; Anamorph: Zymoseptoria tritici; Bayer Code […]) Technical grades of materials were dissolved in acetone, which were then mixed with nine volumes of water containing 110 ppm Triton X-100. The fungicide solutions were applied onto wheat seedlings using an automated booth sprayer to run-off. All sprayed plants were allowed to air dry prior to further handling. All fungicides were evaluated using the aforementioned method for their activity vs. all target diseases, unless stated otherwise. Wheat leaf blotch and brown rust activity were also evaluated using track spray applications, in which case the fungicides were formulated as EC formulations, containing 0.1% Trycol 5941 in the spray solutions. Wheat plants (variety Yuma) were grown from seed in a greenhouse in 50% mineral soil/50% soil-less Metro mix until the first leaf was fully emerged, with 7-10 seedlings per pot. These plants were inoculated with an aqueous spore suspension of Zymoseptoria tritici either prior to or after fungicide treatments. After inoculation the plants were kept in 100% relative humidity (one day in a dark dew chamber followed by two to three days in a lighted dew chamber at 20° C.) to permit spores to germinate and infect the leaf. The plants were then transferred to a greenhouse set at 20° C. for disease to develop. When disease symptoms were fully expressed on the 1st leaves of untreated plants, infection levels were assessed on a scale of 0 to 100 percent disease severity. Percent disease control was calculated using the ratio of disease severity on treated plants relative to untreated plants.

In the next data set the test system is Puccinia triticina. In words: Fungicidal activity: Wheat Brown Rust (PUCCRT), wheat seedlings. The following applies: Low Volume (121.5 g/H). Format: in vivo. The procedure: Technical grades of materials were dissolved in acetone, which were then mixed with nine volumes of water containing 110 ppm Triton X-100. The fungicide solutions were applied onto wheat seedlings using an automated booth sprayer to run-off. All sprayed plants were allowed to air dry prior to further handling. All fungicides were evaluated using the aforementioned method for their activity vs. all target diseases, unless stated otherwise. Wheat leaf blotch and brown rust activity were also evaluated using track spray applications, in which case the fungicides were formulated as EC formulations, containing 0.1% Trycol 5941 in the spray solutions. Wheat plants (variety Yuma) were grown from seed in a greenhouse in 50% mineral soil/50% soil-less Metro mix until the first leaf was fully emerged, with 7-10 seedlings per pot. These plants were inoculated with an aqueous spore suspension of Zymoseptoria tritici either prior to or after fungicide treatments. After inoculation the plants were kept in 100% relative humidity (one day in a dark dew chamber followed by two to three days in a lighted dew chamber at 20° C.) to permit spores to germinate and infect the leaf. The plants were then transferred to a greenhouse set at 20° C. for disease to develop. When disease symptoms were fully expressed on the 1st leaves of untreated plants, infection levels were assessed on a scale of 0 to 100 percent disease severity. Percent disease control was calculated using the ratio of disease severity on treated plants relative to untreated plants. Example B: Evaluation of Fungicidal Activity: Wheat Brown Rust (Puccinia triticina; Synonym: Puccinia recondita f. sp. tritici; Bayer Code PUCCRT) Wheat plants (variety Yuma) were grown from seed in a greenhouse in 50% mineral soil/50% soil-less Metro mix until the first leaf was fully emerged, with 7-10 seedlings per pot. These plants were inoculated with an aqueous spore suspension of Puccinia triticina either prior to or after fungicide treatments. After inoculation the plants were kept in a dark dew room at 22° C. with 100% relative humidity overnight to permit spores to germinate and infect the leaf. The plants were then transferred to a greenhouse set at 24° C. for disease to develop. Fungicide formulation, application and disease assessment followed the procedures as described in the Example A.

[2] abbreviates: 24 h, 1 Day Protectant, read-out: SEPTTR disease control rating, 1DP.
The mark [3] stands for this setting: 72 h, 3 Day Curative, read-out: SEPTTR disease control rating, 3DC.
[4] abbreviates: 24 h, 1 Day Protectant, read-out: PUCCRT disease control rating, 1DP.
Where [5] appears, read: 72 h, 3 Day Curative, read-out: PUCCRT disease control rating, 3DC.

On to `C[C@@H]1OC(=O)[C@@H](NC(=O)OC(C)(C)C)CCOC[C@H]1OCCCC(F)(F)F` [Compound 30], for which the melting point fell in the range of 80 to 83 °C.
`CC(C)CO[C@@H]1COCC[C@H](NC(=O)OC(C)(C)C)C(=O)O[C@H]1C` [Compound 29] showed a melting point of 99 to 103 °C.
Same read-out and setting: next, `C[C@@H]1OC(=O)[C@@H](NC(=O)OC(C)(C)C)CCOC[C@H]1O` [Compound 24, tert-butyl ((3R,4S,7S)-3-hydroxy-4-methyl-6-oxo-1,5-dioxonan-7-yl)carbamate]: 148 to 152 °C.
For `COc1ccnc(C(=O)N[C@H]2CCO[C@H](Cc3ccc(F)cc3)[C@@H](Oc3ccccc3)[C@H](C)OC2=O)c1OC(C)=O` [Compound 75], the pest or weed control at 121.5 g/ha is > 70% in data set [1] (setting [2]), < 70% in data set [1] (setting [3]), > 70% with Puccinia triticina (setting [4]) and > 70% with Puccinia triticina (setting [5]).
For `COc1ccnc(C(=O)N[C@H]2CCO[C@H](Cc3ccc(F)cc3)[C@@H](OCC(C)C)[C@H](C)OC2=O)c1OC(C)=O` [Compound 77], the pest or weed control at 121.5 g/ha (in data set [1] (setting [2]); in data set [1] (setting [3]); with Puccinia triticina (setting [4]); in the data set with Puccinia triticina (setting [5])) was > 70% in each case.
For `C=CCO[C@H]1[C@H](C)OC(=O)[C@@H](NC(=O)c2nccc(OC)c2OC(C)=O)CCO[C@@H]1Cc1ccc(F)cc1` [Compound 80], the pest or weed control at 121.5 g/ha (in data set [1] (setting [2]); in data set [1] (setting [3]); in the data set on Puccinia triticina (setting [4]); in the data set with Puccinia triticina (setting [5])) was < 70% in each case.
On to `COc1ccnc(C(=O)N[C@H]2CCOC[C@@H](OCCCC(F)(F)F)[C@H](C)OC2=O)c1OC(C)=O` [Compound 101], for which the melting point is 43 to 48 °C. In addition, the pest or weed control at 121.5 g/ha in data set [1] (setting [2]) was < 70%. Moreover, the pest or weed control at 121.5 g/ha in data set [1] (setting [3]) is < 70%. Besides, the pest or weed control at 121.5 g/ha in the data set with Puccinia triticina (setting [4]) is > 70%. In the data set on Puccinia triticina (setting [5]), the pest or weed control at 121.5 g/ha is > 70%.
As to `CC[C@H]1OCC[C@H](NC(=O)c2nccc(OC)c2OC(C)=O)C(=O)O[C@@H](C)[C@@H]1OCC(C)C` [Compound 93], the pest or weed control at 121.5 g/ha (in data set [1] (setting [2]); in data set [1] (setting [3]); with Puccinia triticina (setting [4]); with Puccinia triticina (setting [5])) was > 70% each time.
Take `CC[C@H]1OCC[C@H](NC(=O)c2nccc(OC)c2OC(C)=O)C(=O)O[C@@H](C)[C@@H]1OC(=O)C(C)C` [Compound 95]: the pest or weed control at 121.5 g/ha in data set [1] (setting [2]) was < 70%; in data set [1] (setting [3]), > 70%; in the data set on Puccinia triticina (setting [4]) it was > 70%; with Puccinia triticina (setting [5]), > 70%.
On to `C=CCO[C@H]1[C@H](C)OC(=O)[C@@H](NC(=O)c2nccc(OC)c2OCOC(C)=O)CCO[C@@H]1Cc1ccc(F)cc1` [Compound 78], for which the pest or weed control at 121.5 g/ha is < 70% in data set [1] (setting [2]), < 70% in data set [1] (setting [3]), > 70% in the data set with Puccinia triticina (setting [4]) and > 70% in the data set on Puccinia triticina (setting [5]).
For `C=C(C)CO[C@H]1[C@H](C)OC(=O)[C@@H](NC(=O)c2nccc(OC)c2OCOC(C)=O)CCO[C@@H]1CC` [Compound 88], the pest or weed control at 121.5 g/ha in data set [1] (setting [2]) is < 70%; in data set [1] (setting [3]), < 70%; in the data set on Puccinia triticina (setting [4]), > 70%; with Puccinia triticina (setting [5]) it was > 70%.
With `COc1ccnc(C(=O)N[C@H]2CCOC[C@@H](Oc3ccccc3)[C@H](C)OC2=O)c1OCOC(C)=O` [Compound 99], the pest or weed control at 121.5 g/ha in data set [1] (setting [2]) is < 70%; in data set [1] (setting [3]), < 70%; with Puccinia triticina (setting [4]), > 70%; with Puccinia triticina (setting [5]), > 70%.
